Experimental data taken from US11434242B2, “Dopamine-b-hydroxylase inhibitors” (BIAL-PORTELA & Cª, S.A., priority 2017, dated 2022).
Structures can show the parent of a compound that is named as a salt.

Legend:
[1] = test system: noradrenaline (NA) in brain stem; experiment: Catecholamine determination: noradrenaline in brain stem after oral administration; format: in vivo, Wistar rats; conditions: 10 mg/kg oral; for NA in Br.s (% Control): rat brain stem noradrenaline, 15 h post-dose, mean±SD of 4 rats; for effect on levels of NA in CNS tissues such as brain stem: rat
Protocol: Catecholamines quantification in brain stem was performed as previously described (Bonifacio, M. J.; Sousa, F.; Neves, M.; Palma, N.; Igreja, B.; Pires, N. M.; Wright, L. C.; Soares-da-Silva, P. “Characterization of the interaction of the novel anthyhypertensive etamicastat with human dopamine-beta-hydroxylase: comparison with nepicastat.” Eur. J. Pharmacol. 751, 50-58, 2015) with minor modifications. Test compounds were prepared in 40% of kleptose at a concentration of 2.5 mg/ml to be administered at a dose of 10 mg/kg. Compounds and vehicle (kleptose 40%) were administered to Wistar rats and tissues (brain stem or heart left ventricle) collected in perchloric acid (0.2M) at defined time points after administration. Tissues were stored overnight at 4° C. and the solution was then filtered by centrifugation (1500 g, 4 min, 4° C.) through 0.22 μm pore size filters (Costar Spin-x from Corning Inc., USA). Catecholamines were quantified in filtrates by directly injecting 50 μl of sample volume on a HPLC system with electrochemical detection, using a Spheri-5RP-185 mm column (Perkin-Elmer). Mobile phase consisted of a solution containing 0.1M citric acid, 0.1M sodium acetate, 0.15 mM EDTA, 1 mM dibutylamine, 1 mM octylsulfate, and 5% methanol adjusted to pH 3.5 with perchloric acid.

[2] = target: T1, Dopamine beta hydroxylase (Homo sapiens, UniProt P09172); experiment: Dopamine beta hydroxylase activity in human plasma; format: biochemical; conditions: for Plasma (0.01 μM), activity in % of control: inhibitor 0.01 μM; for Plasma (0.1 μM), activity in % of control: inhibitor 0.1 μM
T1 construct: 125 μl of plasma; tissue Instituto Português do Sangue Transplantação; host or cells: human plasma from healthy donors
T1 sequence (P09172 40-617 limits assumed): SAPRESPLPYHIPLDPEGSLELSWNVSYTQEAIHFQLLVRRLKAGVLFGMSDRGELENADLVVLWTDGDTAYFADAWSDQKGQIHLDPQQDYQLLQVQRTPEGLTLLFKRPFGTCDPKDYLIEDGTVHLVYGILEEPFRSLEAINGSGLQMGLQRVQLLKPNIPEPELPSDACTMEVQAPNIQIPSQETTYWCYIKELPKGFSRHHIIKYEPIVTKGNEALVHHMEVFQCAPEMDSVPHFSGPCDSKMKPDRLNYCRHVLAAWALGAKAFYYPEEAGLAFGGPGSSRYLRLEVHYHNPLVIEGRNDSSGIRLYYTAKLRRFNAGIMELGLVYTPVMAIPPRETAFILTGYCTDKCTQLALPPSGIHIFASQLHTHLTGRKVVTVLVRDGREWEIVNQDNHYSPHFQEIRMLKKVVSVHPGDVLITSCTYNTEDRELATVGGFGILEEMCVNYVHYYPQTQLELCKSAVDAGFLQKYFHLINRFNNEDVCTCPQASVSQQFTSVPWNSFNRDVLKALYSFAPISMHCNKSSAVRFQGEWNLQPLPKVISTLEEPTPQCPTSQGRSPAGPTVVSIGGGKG
In short: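 Healthy-donor human plasma pre-incubated 10 min at 37° C with compound at final 10, 100 or 1000 nM in pH 5.0 acetate buffer with ascorbate, fumarate, pargyline, N-ethylmaleimide, catalase and copper sulfate. Tyramine substrate then added for 45 min; octopamine formed was isolated by SCX cartridge, periodate-converted and read at 330 nm; activity given as % control.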

Structure (SMILES)	NA in Br.s (% Control) [1] [% Control]	effect on levels of NA in CNS tissues such as brain stem [1]	Plasma (0.01 μM), activity in % of control [2]	Plasma (0.1 μM), activity in % of control [2]	Plasma (1 μM), activity in % of control ([2]; inhibitor 1 μM)
Fc1ccc(Br)c(F)c1[C@@H]1Cc2c(CCN3CCOCC3)[nH]c(=S)n2C1 [Example 195, (S)-6-(3-bromo-2,6-difluorophenyl)-1-(2-morpholinoethyl)-2,5,6,7-tetrahydro-3H-pyrrolo[1,2-c]imidazole-3-thione]	123 ± 55	failed to reduce levels of NA	77.3 % of control	41.7 % of control	
Fc1cc(F)c(F)c([C@H]2Cc3c(CCCN4CCCC4)[nH]c(=S)n3C2)c1F [Example 219, (R)-1-(3-(pyrrolidin-1-yl)propyl)-6-(2,3,5,6-tetrafluorophenyl)-2,5,6,7-tetrahydro-3H-pyrrolo[1,2-c]imidazole-3-thione hydrochloride]	92 ± 23	failed to reduce levels of NA	69.9 % of control	19.7 % of control	
F.Fc1ccc(Br)cc1[C@]12C[C@H]1c1c(CCN3CCOCC3)[nH]c(=S)n1C2 [Example 191, (5aS,6aR)-5a-(5-bromo-2-fluorophenyl)-1-(2-morpholinoethyl)-5,5a,6,6a-tetrahydrocyclopropa[3,4]pyrrolo[1,2-c]imidazole-3(2H)-thione hydrofluoride]	83 ± 10	failed to reduce levels of NA	82.3 % of control	26.0 % of control	
CN(C(=O)Cc1c2n(c(=S)n1C)C[C@@]1(c3c(F)ccc(Cl)c3F)C[C@@H]21)C1COC1 [Example 403, 2-((5aS,6aR)-5a-(3-chloro-2,6-difluorophenyl)-2-methyl-3-thioxo-2,3,5,5a,6,6a-hexahydrocyclopropa[3,4]pyrrolo[1,2-c]imidazol-1-yl)-N-methyl-N-(oxetan-3-yl)acetamide]	87 ± 16	failed to reduce levels of NA	29.9 % of control	4.8 % of control	
Cn1c(CC(=O)O)c2n(c1=S)C[C@@]1(c3c(F)ccc(Cl)c3F)C[C@@H]21 [Example 231, 2-((5aS,6aR)-5a-(3-chloro-2,6-difluorophenyl)-2-methyl-3-thioxo-2,3,5,5a,6,6a-hexahydrocyclopropa[3,4]pyrrolo[1,2-c]imidazol-1-yl)acetic Acid]	99 ± 14	failed to reduce levels of NA	35.9 % of control	5.6 % of control	
Cl.Cn1c(CCN[C@@H]2CCOC2)c2n(c1=S)C[C@H](c1c(F)ccc(Br)c1F)C2 [Example 256, (S)-6-(3-bromo-2,6-difluorophenyl)-2-methyl-1-(2-(((R)-tetrahydrofuran-3-yl)amino)ethyl)-2,5,6,7-tetrahydro-3H-pyrrolo[1,2-c]imidazole-3-thione hydrochloride]	128 ± 64	failed to reduce levels of NA	61.7 % of control	29.2 % of control	
Cl.Fc1ccc(Cl)cc1[C@]12C[C@H]1c1c(CCN3CCOCC3)[nH]c(=S)n1C2 [Example 174, (5aS,6aR)-5a-(5-chloro-2-fluorophenyl)-1-(2-morpholinoethyl)-5,5a,6,6a-tetrahydrocyclopropa[3,4]pyrrolo[1,2-c]imidazole-3(2H)-thione hydrochloride]	84 ± 8	failed to reduce levels of NA		52.7 % of control	8.5 % of control
